According to paper PMC5760531, “Action Potential Recording and Pro-arrhythmia Risk Analysis in Human Ventricular Trabeculae” (Frontiers in Physiology, 2018):

Test system: human ventricular trabeculae
Test: Action potential recording and pro-arrhythmic score analysis in human ventricular trabeculae (hVT);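 also: sharp microelectrode action potential recordings at 37°C in Tyrode-perfused trabeculae, 4 cumulative concentrations each applied 31 min, values averaged over last 30 APs, vehicle 0.1% DMSO as control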
[1] = 1Hz, 1-FOLD free ETPC (0.009µM)
[2] = 1Hz, 11-FOLD free ETPC (0.009µM)
[3] = 1Hz, 111-FOLD free ETPC (0.009µM)
[4] = 1Hz, 1111-FOLD free ETPC (0.009µM)
[5] = 2Hz, 1-FOLD free ETPC (0.009µM)
[6] = 2Hz, 11-FOLD free ETPC (0.009µM)
[7] = 2Hz, 111-FOLD free ETPC (0.009µM)
[8] = 2Hz, 1111-FOLD free ETPC (0.009µM)

SMILES: CC(C)(C)c1ccc(C(O)CCCN2CCC(C(O)(c3ccccc3)c3ccccc3)CC2)cc1 (stereo not drawn) [TERFENADINE, Terfenadine]
- AMAX [1]: 113
- AMAX percentage change compared to vehicle control [1]: 1%
- APD30 [1]: 148
- APD30 percentage change compared to vehicle control [1]: 4%
- APD50 [1]: 199
- APD50 percentage change compared to vehicle control [1]: 3%
- APD90 [1]: 278
- APD90 percentage change compared to vehicle control [1]: 1%
- Alternans [1]: 0.70
- Alternans percentage change compared to vehicle control [1]: 53%
- Beat Escape [1]: 0
- Beat Escape percentage change compared to vehicle control [1]: 0%
- EADs [1]: 0
- EADs percentage change compared to vehicle control [1]: 0%
- ERP [1]: 0.45
- ERP percentage change compared to vehicle control [1]: -2%
- Max Dispersion [1]: 4.48
- Max Dispersion percentage change compared to vehicle control [1]: 60%
- RMP [1]: -89
- RMP percentage change compared to vehicle control [1]: 1%
- Refractoriness Escape [1]: 0
- Refractoriness Escape percentage change compared to vehicle control [1]: 0%
- STV [1]: 0.50
- STV percentage change compared to vehicle control [1]: 72%
- Triangulation [1]: 130
- Triangulation percentage change compared to vehicle control [1]: -2%
- AMAX [2]: 109
- AMAX percentage change compared to vehicle control [2]: -1%
- APD30 [2]: 152
- APD30 percentage change compared to vehicle control [2]: 6%
- APD50 [2]: 203
- APD50 percentage change compared to vehicle control [2]: 4%
- APD90 [2]: 286
- APD90 percentage change compared to vehicle control [2]: 3%
- Alternans [2]: 0.62
- Alternans percentage change compared to vehicle control [2]: 35%
- Beat Escape [2]: 0
- Beat Escape percentage change compared to vehicle control [2]: 0%
- EADs [2]: 0
- EADs percentage change compared to vehicle control [2]: 0%
- ERP [2]: 0.44
- ERP percentage change compared to vehicle control [2]: -3%
- Max Dispersion [2]: 2.80
- Max Dispersion percentage change compared to vehicle control [2]: 0%
- RMP [2]: -86
- RMP percentage change compared to vehicle control [2]: -2%
- Refractoriness Escape [2]: 0
- Refractoriness Escape percentage change compared to vehicle control [2]: 0%
- STV [2]: 0.45
- STV percentage change compared to vehicle control [2]: 40%
- Triangulation [2]: 134
- Triangulation percentage change compared to vehicle control [2]: 0%
- AMAX [3]: 109
- AMAX percentage change compared to vehicle control [3]: -2%
- APD30 [3]: 148
- APD30 percentage change compared to vehicle control [3]: 4%
- APD50 [3]: 200
- APD50 percentage change compared to vehicle control [3]: 3%
- APD90 [3]: 284
- APD90 percentage change compared to vehicle control [3]: 2%
- Alternans [3]: 0.52
- Alternans percentage change compared to vehicle control [3]: 12%
- Beat Escape [3]: 0
- Beat Escape percentage change compared to vehicle control [3]: 0%
- EADs [3]: 0
- EADs percentage change compared to vehicle control [3]: 0%
- ERP [3]: 0.45
- ERP percentage change compared to vehicle control [3]: 0%
- Max Dispersion [3]: 2.43
- Max Dispersion percentage change compared to vehicle control [3]: -13%
- RMP [3]: -85
- RMP percentage change compared to vehicle control [3]: -3%
- Refractoriness Escape [3]: 0
- Refractoriness Escape percentage change compared to vehicle control [3]: 0%
- STV [3]: 0.39
- STV percentage change compared to vehicle control [3]: 30%
- Triangulation [3]: 135
- Triangulation percentage change compared to vehicle control [3]: 0%
- AMAX [4]: 110
- AMAX percentage change compared to vehicle control [4]: 0%
- APD30 [4]: 140
- APD30 percentage change compared to vehicle control [4]: -2%
- APD50 [4]: 192
- APD50 percentage change compared to vehicle control [4]: -2%
- APD90 [4]: 277
- APD90 percentage change compared to vehicle control [4]: 0%
- Alternans [4]: 0.60
- Alternans percentage change compared to vehicle control [4]: 31%
- Beat Escape [4]: 0
- Beat Escape percentage change compared to vehicle control [4]: 0%
- EADs [4]: 0
- EADs percentage change compared to vehicle control [4]: 0%
- ERP [4]: 0.46
- ERP percentage change compared to vehicle control [4]: 2%
- Max Dispersion [4]: 3.70
- Max Dispersion percentage change compared to vehicle control [4]: 32%
- RMP [4]: -87
- RMP percentage change compared to vehicle control [4]: -1%
- Refractoriness Escape [4]: 0
- Refractoriness Escape percentage change compared to vehicle control [4]: 0%
- STV [4]: 0.44
- STV percentage change compared to vehicle control [4]: 56%
- Triangulation [4]: 137
- Triangulation percentage change compared to vehicle control [4]: 2%
- AMAX [5]: 109
- AMAX percentage change compared to vehicle control [5]: 2%
- APD30 [5]: 107
- APD30 percentage change compared to vehicle control [5]: 8%
- APD50 [5]: 151
- APD50 percentage change compared to vehicle control [5]: 6%
- APD90 [5]: 228
- APD90 percentage change compared to vehicle control [5]: 2%
- Alternans [5]: 1.31
- Alternans percentage change compared to vehicle control [5]: 24%
- Beat Escape [5]: 0
- Beat Escape percentage change compared to vehicle control [5]: 0%
- EADs [5]: 0
- EADs percentage change compared to vehicle control [5]: 0%
- ERP [5]: 0.48
- ERP percentage change compared to vehicle control [5]: -3%
- Max Dispersion [5]: 5.60
- Max Dispersion percentage change compared to vehicle control [5]: 14%
- RMP [5]: -87
- RMP percentage change compared to vehicle control [5]: 1%
- Refractoriness Escape [5]: 0
- Refractoriness Escape percentage change compared to vehicle control [5]: 0%
- STV [5]: 0.91
- Triangulation [5]: 120
- Triangulation percentage change compared to vehicle control [5]: -2%
- AMAX [6]: 108
- AMAX percentage change compared to vehicle control [6]: 2%
- APD30 [6]: 110
- APD30 percentage change compared to vehicle control [6]: 11%
- APD50 [6]: 153
- APD50 percentage change compared to vehicle control [6]: 7%
- APD90 [6]: 231
- APD90 percentage change compared to vehicle control [6]: 4%
- Alternans [6]: 0.97
- Alternans percentage change compared to vehicle control [6]: -8%
- Beat Escape [6]: 0
- Beat Escape percentage change compared to vehicle control [6]: 0%
- EADs [6]: 0
- EADs percentage change compared to vehicle control [6]: 0%
- ERP [6]: 0.47
- ERP percentage change compared to vehicle control [6]: -6%
- Max Dispersion [6]: 4.40
- Max Dispersion percentage change compared to vehicle control [6]: -11%
- RMP [6]: -86
- RMP percentage change compared to vehicle control [6]: -1%
- Refractoriness Escape [6]: 0
- Refractoriness Escape percentage change compared to vehicle control [6]: 0%
- STV [6]: 0.66
- Triangulation [6]: 121
- Triangulation percentage change compared to vehicle control [6]: -2%
- AMAX [7]: 109
- AMAX percentage change compared to vehicle control [7]: 2%
- APD30 [7]: 108
- APD30 percentage change compared to vehicle control [7]: 10%
- APD50 [7]: 154
- APD50 percentage change compared to vehicle control [7]: 7%
- APD90 [7]: 234
- APD90 percentage change compared to vehicle control [7]: 4%
- Alternans [7]: 1.28
- Alternans percentage change compared to vehicle control [7]: 21%
- Beat Escape [7]: 0
- Beat Escape percentage change compared to vehicle control [7]: 0%
- EADs [7]: 0
- EADs percentage change compared to vehicle control [7]: 0%
- ERP [7]: 0.48
- ERP percentage change compared to vehicle control [7]: -2%
- Max Dispersion [7]: 5.53
- Max Dispersion percentage change compared to vehicle control [7]: 12%
- RMP [7]: -85
- RMP percentage change compared to vehicle control [7]: -2%
- Refractoriness Escape [7]: 0
- Refractoriness Escape percentage change compared to vehicle control [7]: 0%
- STV [7]: 0.89
- Triangulation [7]: 126
- Triangulation percentage change compared to vehicle control [7]: 0%
- AMAX [8]: 108
- AMAX percentage change compared to vehicle control [8]: 2%
- APD30 [8]: 105
- APD30 percentage change compared to vehicle control [8]: 5%
- APD50 [8]: 150
- APD50 percentage change compared to vehicle control [8]: 4%
- APD90 [8]: 233
- APD90 percentage change compared to vehicle control [8]: 3%
- Alternans [8]: 0.96
- Alternans percentage change compared to vehicle control [8]: -10%
- Beat Escape [8]: 0
- Beat Escape percentage change compared to vehicle control [8]: 0%
- EADs [8]: 0
- EADs percentage change compared to vehicle control [8]: 0%
- ERP [8]: 0.48
- ERP percentage change compared to vehicle control [8]: -3%
- Max Dispersion [8]: 3.10
- Max Dispersion percentage change compared to vehicle control [8]: -37%
- RMP [8]: -85
- RMP percentage change compared to vehicle control [8]: -2%
- Refractoriness Escape [8]: 0
- Refractoriness Escape percentage change compared to vehicle control [8]: 0%
- STV [8]: 0.71
- Triangulation [8]: 128
- Triangulation percentage change compared to vehicle control [8]: 3%
